Results published in ChEMBL document CHEMBL5576083, “Structure-Based Design and Synthesis of Covalent Inhibitors for Deubiquitinase and Acetyltransferase ChlaDUB1 of Chlamydia trachomatis” (J Med Chem, 2024).
Converted amounts (≈) assume the structure as drawn. The source made the active and inactive calls. The calls are words filed in the database; no cut-off is given here.

System: Chlamydia trachomatis
Assay: Antimicrobial activity against Chlamydia trachomatis serovar L2 infected in human HeLa cells assessed as reduction in inclusion forming unit at 1 ug/ml measured at 24 to 48 hrs of post-infection by immunofluorescence based microscopic analysis
Type: functional, organism-based
Conditions: dose 1.0 µg/ml, time 24-48 hrs

Row | SMILES | Activity
1 | C[C@H]1c2cccc(O)c2C(=O)C2=C(O)[C@]3(O)C(=O)C(C(N)=O)=C(O)[C@@H](N(C)C)[C@@H]3[C@@H](O)[C@@H]21 [DOXYCYCLINE ANHYDROUS] | Active

System: not listed separately
Assay: Covalent inhibition of C-terminal 6His-tagged Chlamydia trachomatis DUB1 (130 to 401 residues) expressed in Escherichia coli Rosetta 2 (DE3) cells using Ub-Rh110Gly as fluorogenic substrate preincubated for 1 hr followed by substrate addition by plate reader analysis
Conditions: not given

Row | IC50 [µM] | pIC50 | SMILES
2 | 35 | 4.46 | CC(C)CN(CC(C)C)C(=O)c1ccc(CNC(=O)c2cnc(C#N)nc2)cc1
3 | 241 | 3.62 | Cc1ccc(CNC(=O)c2ccc(CNC(=O)c3cnc(C#N)nc3)cc2)cc1
4 | 154 | 3.82 | N#Cc1ncc(C(=O)NCc2ccccc2)cn1
5 | 14 | 4.86 | N#Cc1ncc(C(=O)NCc2ccc(C(=O)CCN3CCOCC3)cc2)cn1
6 | 21 | 4.67 | N#Cc1ncc(C(=O)NCc2ccc(C(=O)NCC3CCC3)cc2)cn1
7 | 24 | 4.63 | N#Cc1ncc(C(=O)NCc2ccc(C(=O)Cc3ccccc3)cc2)cn1
8 | 21 | 4.68 | Cc1cccc(CNC(=O)c2ccc(CNC(=O)c3cnc(C#N)nc3)cc2)c1
9 | 51 | 4.29 | N#Cc1ncc(C(=O)NCc2ccc(C(=O)NCCN3CCOCC3)cc2)cn1
10 | 131 | 3.88 | Cn1c(-c2ccc(CNC(=O)c3cnc(C#N)nc3)cc2)nc2ccccc21
11 | 31 | 4.5 | COc1ccccc1CNC(=O)c1ccc(CNC(=O)c2cnc(C#N)nc2)cc1
12 | 16 | 4.79 | N#Cc1ncc(C(=O)NCc2ccc(C(=O)N3CCc4ccccc4C3)cc2)cn1
13 | 521 | 3.28 | COc1ccc(CNC(=O)c2ccc(CNC(=O)c3cnc(C#N)nc3)cc2)cc1
14 | 74 | 4.13 | CCCN(CCC)C(=O)c1ccc(CNC(=O)c2cnc(C#N)nc2)cc1
15 | 41 | 4.13 | CC(C)(C)N(Cc1ccc(C(=O)Cc2ccccc2)cc1)C(=O)c1cnc(C#N)nc1
16 | 81 | 4.09 | COc1cccc(CNC(=O)c2ccc(CNC(=O)c3cnc(C#N)nc3)cc2)c1
17 | 18 | 4.75 | Cc1ccccc1CNC(=O)c1ccc(CNC(=O)c2cnc(C#N)nc2)cc1
18 | 74 | 4.13 | CC(=O)c1ccc(CNC(=O)c2cnc(C#N)nc2)cc1
19 | 37 | 4.43 | N#Cc1ncc(C(=O)NCc2ccc(C(=O)NCC3CC3)cc2)cn1
20 | 25 | 4.6 | N#Cc1ncc(C(=O)NCc2ccc(C(=O)NCCC3CC3)cc2)cn1
21 | 23 | 4.64 | N#Cc1ncc(C(=O)NCc2ccc(C(=O)NCC3CCCCC3)cc2)cn1
22 | 31 | 4.51 | N#Cc1ncc(C(=O)NCc2ccc(C(=O)NCc3nccs3)cc2)cn1
23 | 13 | 4.9 | CCOc1ccccc1CNC(=O)c1ccc(CNC(=O)c2cnc(C#N)nc2)cc1
24 | 27 | 4.57 | N#Cc1ncc(C(=O)NCc2ccc(C(=O)NCc3ccccc3)cc2)cn1
25 | 64 | 4.2 | N#Cc1ncc(C(=O)NCc2ccc(C(=O)NCCc3ccccc3)cc2)cn1

System: not listed separately
Assay: (§1) Binding affinity to C-terminal 6His-tagged Chlamydia trachomatis DUB1 (130 to 401 residues) expressed in Escherichia coli Rosetta 2 (DE3) cells using Ub-Rh110Gly as fluorogenic substrate assessed as inhibition constant preincubated for 60 mins followed by substrate addition measured after 360 mins by plate reader analysis
Conditions: not given

Row | SMILES | Ki [µM]
26 | N#Cc1ncc(C(=O)NCc2ccc(C(=O)CCN3CCOCC3)cc2)cn1 | 441
27 | COc1ccccc1CNC(=O)c1ccc(CNC(=O)c2cnc(C#N)nc2)cc1 | 276
28 | N#Cc1ncc(C(=O)NCc2ccc(C(=O)NCc3ccccc3)cc2)cn1 | 226

System: Chlamydia trachomatis
Assay: Antimicrobial activity against Chlamydia trachomatis serovar L2 infected in human HeLa cells assessed as fold increase in inclusion forming unit at 1 ug/ml measured after 48 hrs of post-infection by immunofluorescence based microscopic analysis
Type: functional
Conditions: dose 1 µg/ml

Row | SMILES | fold change (FC)
29 | C[C@H]1c2cccc(O)c2C(=O)C2=C(O)[C@]3(O)C(=O)C(C(N)=O)=C(O)[C@@H](N(C)C)[C@@H]3[C@@H](O)[C@@H]21 [DOXYCYCLINE ANHYDROUS] | 5.3

System: Chlamydia trachomatis
Assay: Anti-chlamydial activity against Chlamydia trachomatis serovar L2 infected in human HEp-2 cells assessed as inhibition of chlamydial inclusion incubated for 24 hrs by Alexa488/DAPI staining based immunofluorescence assay
Type: functional, organism-based
Conditions: serovar L2, HEp-2, 24 h

Row | IC50 [µg/mL] | SMILES
30 | 28.4 (≈ 72.2 µM) | CC(C)CN(CC(C)C)C(=O)c1ccc(CNC(=O)c2cnc(C#N)nc2)cc1
31 | 38.9 (≈ 111 µM) | N#Cc1ncc(C(=O)NCc2ccc(C(=O)NCC3CCC3)cc2)cn1
32 | 17.3 (≈ 44.9 µM) | Cc1cccc(CNC(=O)c2ccc(CNC(=O)c3cnc(C#N)nc3)cc2)c1
33 | 16.9 (≈ 42.1 µM) | COc1ccccc1CNC(=O)c1ccc(CNC(=O)c2cnc(C#N)nc2)cc1
34 | 9.88 (≈ 24 µM) | CC(C)(C)N(Cc1ccc(C(=O)Cc2ccccc2)cc1)C(=O)c1cnc(C#N)nc1
35 | > 50 | COc1cccc(CNC(=O)c2ccc(CNC(=O)c3cnc(C#N)nc3)cc2)c1
36 | 16.9 (≈ 43.8 µM) | Cc1ccccc1CNC(=O)c1ccc(CNC(=O)c2cnc(C#N)nc2)cc1
37 | 47.4 (≈ 169 µM) | CC(=O)c1ccc(CNC(=O)c2cnc(C#N)nc2)cc1
38 | 47.7 (≈ 142 µM) | N#Cc1ncc(C(=O)NCc2ccc(C(=O)NCC3CC3)cc2)cn1
39 | 40.7 (≈ 116 µM) | N#Cc1ncc(C(=O)NCc2ccc(C(=O)NCCC3CC3)cc2)cn1
40 | 15.8 (≈ 38 µM) | CCOc1ccccc1CNC(=O)c1ccc(CNC(=O)c2cnc(C#N)nc2)cc1
41 | 0.018 (≈ 0.0405 µM) | C[C@H]1c2cccc(O)c2C(=O)C2=C(O)[C@]3(O)C(=O)C(C(N)=O)=C(O)[C@@H](N(C)C)[C@@H]3[C@@H](O)[C@@H]21 [DOXYCYCLINE ANHYDROUS]
42 | 19.4 (≈ 52.2 µM) | N#Cc1ncc(C(=O)NCc2ccc(C(=O)NCc3ccccc3)cc2)cn1

System: Chlamydia trachomatis
Assay: Antimicrobial activity against Chlamydia trachomatis serovar L2 infected in human HeLa cells assessed as reduction in inclusion area at 12.5 ug/ml measured after 24 hrs of post-infection by microscopic analysis (reference value: 79.96 microm2)
Type: functional
Conditions: dose 12.5 µg/ml

Row | SMILES | Activity [um2]
43 | CC(C)(C)N(Cc1ccc(C(=O)Cc2ccccc2)cc1)C(=O)c1cnc(C#N)nc1 | 23.3

System: Chlamydia trachomatis
Assay: Antimicrobial activity against Chlamydia trachomatis serovar L2 infected in human HeLa cells assessed as reduction in inclusion circumference at 12.5 ug/ml measured after 24 hrs of post-infection by microscopic analysis (reference value: 33.2 micrometer)
Type: functional
Conditions: dose 12.5 µg/ml

Row | SMILES | Activity [um]
44 | CC(C)(C)N(Cc1ccc(C(=O)Cc2ccccc2)cc1)C(=O)c1cnc(C#N)nc1 | 18.05

System: Chlamydia trachomatis
Assay: Antimicrobial activity against Chlamydia trachomatis serovar L2 infected in human HeLa cells assessed as reduction in microbial progeny at 3.13 ug/ml measured after 24 hrs of post-infection by immunofluorescence analysis
Type: functional
Set-up: scale not given: the % may be the effect or the level left
Conditions: dose 3.13 µg/ml

Row | SMILES | Activity [%]
45 | CC(C)(C)N(Cc1ccc(C(=O)Cc2ccccc2)cc1)C(=O)c1cnc(C#N)nc1 | 31.5

System: Chlamydia trachomatis
Assay: Antimicrobial activity against Chlamydia trachomatis serovar L2 infected in human HeLa cells assessed as reduction in microbial progeny at 1.56 ug/ml measured after 24 hrs of post-infection by immunofluorescence analysis
Type: functional
Set-up: scale not given: the % may be the effect or the level left
Conditions: dose 1.56 µg/ml

Row | SMILES | Activity [%]
46 | CC(C)(C)N(Cc1ccc(C(=O)Cc2ccccc2)cc1)C(=O)c1cnc(C#N)nc1 | 16.5

System: Chlamydia trachomatis
Assay: Antimicrobial activity against Chlamydia trachomatis serovar L2 infected in human HeLa cells assessed as reduction in microbial progeny at 3.13 ug/ml measured after 48 hrs of post-infection by immunofluorescence analysis
Type: functional
Set-up: scale not given: the % may be the effect or the level left
Conditions: dose 3.13 µg/ml

Row | SMILES | Activity [%]
47 | CC(C)(C)N(Cc1ccc(C(=O)Cc2ccccc2)cc1)C(=O)c1cnc(C#N)nc1 | 51.5

System: Chlamydia trachomatis
Assay: Antimicrobial activity against Chlamydia trachomatis serovar L2 infected in human HeLa cells assessed as reduction in microbial progeny at 12.5 ug/ml measured after 24 hrs of post-infection by immunofluorescence analysis
Type: functional
Set-up: scale not given: the % may be the effect or the level left
Conditions: dose 12.5 µg/ml

Row | SMILES | Activity [%]
48 | CC(C)(C)N(Cc1ccc(C(=O)Cc2ccccc2)cc1)C(=O)c1cnc(C#N)nc1 | 81

System: Chlamydia trachomatis
Assay: Antimicrobial activity against Chlamydia trachomatis serovar L2 infected in human HeLa cells assessed as reduction in microbial progeny at 6.25 ug/ml measured after 24 hrs of post-infection by immunofluorescence analysis
Type: functional
Set-up: scale not given: the % may be the effect or the level left
Conditions: dose 6.25 µg/ml

Row | SMILES | Activity [%]
49 | CC(C)(C)N(Cc1ccc(C(=O)Cc2ccccc2)cc1)C(=O)c1cnc(C#N)nc1 | 38.5

System: Chlamydia trachomatis
Assay: Antimicrobial activity against Chlamydia trachomatis serovar L2 infected in human HeLa cells assessed as reduction in inclusion circumference at 6.25 ug/ml measured after 24 hrs of post-infection by microscopic analysis (reference value: 33.2 micrometer)
Type: functional
Conditions: dose 6.25 µg/ml

Row | SMILES | Activity [um]
50 | CC(C)(C)N(Cc1ccc(C(=O)Cc2ccccc2)cc1)C(=O)c1cnc(C#N)nc1 | 24.83

System: Chlamydia trachomatis
Assay: Antimicrobial activity against Chlamydia trachomatis serovar L2 infected in human HeLa cells assessed as reduction in inclusion area at 6.25 ug/ml measured after 24 hrs of post-infection by microscopic analysis (reference value: 79.96 microm2)
Type: functional
Conditions: dose 6.25 µg/ml

Row | SMILES | Activity [um2]
51 | CC(C)(C)N(Cc1ccc(C(=O)Cc2ccccc2)cc1)C(=O)c1cnc(C#N)nc1 | 44.93

Biological target: Ubiquitin carboxyl-terminal hydrolase 7 (Homo sapiens) (UniProt Q93009)
Sequence (Q93009 whole entry, looked up, the tested form may be a part): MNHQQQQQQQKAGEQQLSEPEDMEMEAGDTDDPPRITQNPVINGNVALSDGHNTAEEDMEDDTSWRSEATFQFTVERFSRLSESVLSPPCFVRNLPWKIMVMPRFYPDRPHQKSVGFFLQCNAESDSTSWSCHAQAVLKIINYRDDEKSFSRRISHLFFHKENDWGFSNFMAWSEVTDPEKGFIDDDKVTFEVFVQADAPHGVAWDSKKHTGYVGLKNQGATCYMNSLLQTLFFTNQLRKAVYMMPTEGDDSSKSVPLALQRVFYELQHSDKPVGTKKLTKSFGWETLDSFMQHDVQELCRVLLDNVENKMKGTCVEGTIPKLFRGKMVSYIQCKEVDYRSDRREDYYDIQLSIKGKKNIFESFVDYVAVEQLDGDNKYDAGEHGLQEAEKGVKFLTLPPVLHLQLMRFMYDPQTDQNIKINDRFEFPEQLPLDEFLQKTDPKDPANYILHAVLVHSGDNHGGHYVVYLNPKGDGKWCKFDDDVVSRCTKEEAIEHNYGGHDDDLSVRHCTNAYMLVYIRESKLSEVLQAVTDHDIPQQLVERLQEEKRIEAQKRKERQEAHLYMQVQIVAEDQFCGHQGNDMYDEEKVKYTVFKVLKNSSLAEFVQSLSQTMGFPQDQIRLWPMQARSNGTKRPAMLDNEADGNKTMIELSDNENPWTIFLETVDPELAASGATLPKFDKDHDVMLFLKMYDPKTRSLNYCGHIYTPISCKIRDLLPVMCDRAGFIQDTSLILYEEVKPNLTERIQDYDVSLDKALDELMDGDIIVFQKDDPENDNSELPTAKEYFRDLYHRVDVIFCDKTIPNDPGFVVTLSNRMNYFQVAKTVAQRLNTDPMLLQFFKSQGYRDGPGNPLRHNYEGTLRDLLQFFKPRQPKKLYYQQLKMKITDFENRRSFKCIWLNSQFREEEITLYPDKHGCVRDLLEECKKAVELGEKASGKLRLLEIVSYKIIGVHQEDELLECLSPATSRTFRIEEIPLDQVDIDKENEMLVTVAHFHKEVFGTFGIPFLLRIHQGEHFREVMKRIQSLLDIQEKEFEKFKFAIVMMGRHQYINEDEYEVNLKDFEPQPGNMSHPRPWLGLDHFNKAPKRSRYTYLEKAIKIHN
Assay: Binding affinity to USP7 (208 to 1102 residues) (unknown origin) expressed in Sf9 insect cells assessed as ratio of Kinact/Ki incubated for 3 hrs by fluorescence based analysis
Conditions: not given

Row | Ratio [M⁻¹ s⁻¹] | SMILES
52 | 66 | C=CS(=O)(=O)Nc1ccccc1-c1ccc(C(=O)N2CCC(O)(Cn3cnc4c(cnn4C)c3=O)CC2)cc1

Biological target: Ubiquitin carboxyl-terminal hydrolase isozyme L1 (Homo sapiens) (UniProt P09936)
Assay: Binding affinity to human UCHL1 (1 to 223 residues) expressed in Escherichia coli Rosetta 2 (DE3) cells using Ub-Rh110Gly as fluorogenic substrate assessed as ratio of Kinact/Ki by fluorescence based analysis
Conditions: not given

Row | Ratio [M⁻¹ s⁻¹] | SMILES
53 | 681 | C#CCCCNC(=O)c1ccc(-n2cnc(NC(=O)[C@H]3CCN(C#N)C3)c2)cc1

System: Chlamydia trachomatis
Assay: as §1, with “Kinact” for “inhibition constant”
Conditions: time 420.0 min

Row | SMILES | Kinact [min⁻¹]
54 | N#Cc1ncc(C(=O)NCc2ccc(C(=O)CCN3CCOCC3)cc2)cn1 | 0.363

Biological target: T1, Ubiquitin carboxyl-terminal hydrolase isozyme L1 (Homo sapiens, UniProt P09936)
T1 sequence (P09936 whole entry): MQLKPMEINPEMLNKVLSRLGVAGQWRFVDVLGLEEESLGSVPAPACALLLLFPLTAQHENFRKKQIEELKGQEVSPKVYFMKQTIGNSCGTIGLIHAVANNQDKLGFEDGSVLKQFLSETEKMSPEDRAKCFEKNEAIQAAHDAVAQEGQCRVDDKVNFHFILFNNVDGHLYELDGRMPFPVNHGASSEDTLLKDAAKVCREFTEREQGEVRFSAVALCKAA
Assay: Inhibition of 6His-tagged human UCHL1 using Ub-Rh110Gly as fluorogenic substrate preincubated for 1 hr followed by substrate addition by plate reader analysis
Conditions: not given

Row | IC50 [µM] | SMILES
55 | < 1 | Cc1nn(C)c2cc(-c3ccc(-n4cnc(NC(=O)[C@H]5CCN(C#N)C5)c4)cc3)ccc12

System: Chlamydia trachomatis
Assay: Antimicrobial activity against Chlamydia trachomatis serovar L2 infected in human HeLa cells assessed as reduction in microbial progeny at 1.56 ug/ml measured after 48 hrs of post-infection by immunofluorescence analysis
Type: functional
Set-up: scale not given: the % may be the effect or the level left
Conditions: dose 1.56 µg/ml

Row | SMILES | Activity [%]
56 | CC(C)(C)N(Cc1ccc(C(=O)Cc2ccccc2)cc1)C(=O)c1cnc(C#N)nc1 | 55.5

System: Chlamydia trachomatis
Assay: as §1, with “ratio of Kinact/Ki” for “inhibition constant”
Conditions: time 420.0 min

Row | SMILES | Ratio [M⁻¹ s⁻¹]
57 | N#Cc1ncc(C(=O)NCc2ccc(C(=O)CCN3CCOCC3)cc2)cn1 | 13.7
